Assay results taken from patent publication US10975075B2, “Imidazolonylquinolines and the use thereof as ATM kinase inhibitors” (priority 2015, dated 2021).

Test system: phosphorylation of CHK2 (phospho-Thr68) in HCT116 cells
Test: Cellular pCHK2 assay (bleomycin-induced phosphorylation of CHK2 phospho-Thr68, immunofluorescence high content)
Type: cell-based, human
Conditions: 10 μM bleomycin, 4 h
Source text: For the identification of substances which inhibit the phosphorylation of the protein kinase CHK2 at the amino acid threonine 68, an immunofluorescence-based “high content” analysis assay was used in HCT116 cells.
In vitro cell-based immunofluorescence assay for the identification of inhibitors of bleomycin-induced phosphorylation of CHK2 (phospho-Thr68) in the human colon carcinoma cell line HCT116:
HCT116 cells are sown out in a defined cell density in 384-well plates in culture medium (DMEM high glucose, 2 mM GlutaMax, 1 mM Na pyruvate, 10% FCS) and incubated overnight at 37° C. and 10% of CO2. On the following day, the test substances are added in a defined concentration range (1 nM to 30 μM) in combination with 10 μM bleomycin, where the concentration of the solvent DMSO is kept constant at 0.5%. […] Parallel staining of DNA with propidium iodide enables determination of the cell count. The pCHK2 signal is detected using a high-content imager (Molecular Devices IMX Ultra) and automatic image analysis using the MetaXpress software belonging to the instrument. The number of cell nuclei which have a pCHK2 signal above a defined background is determined.

SMILES | IC50 [µM]
COc1cc2ncc3c(c2cc1-c1cn[nH]c1)n(-c1ccncc1C)c(=O)n3C [Compound Example 19, 7-Methoxy-3-methyl-1-(3-methylpyridin-4-yl)-8-(1 H-pyrazol-4-yl)-1,3-dihydro-imidazo[4,5-c]quinolin-2-one] | < 0.2
COc1cc2ncc3c(c2cc1-c1cnn(C)c1)n(-c1cnn(C)c1)c(=O)n3C [Compound Example 23, 7-Methoxy-3-methyl-1,8-bis-(1-methyl-1H-pyrazol-4-yl)-1,3-dihydroimidazo[4,5-c] quinolin-2-one] | < 0.2
COc1cc2ncc3c(c2cc1-c1cnn(C)c1)n(-c1c(C)n[nH]c1C)c(=O)n3C [Example 118, 1-(3,5-Dimethyl-1H-pyrazol-4-yl)-7-methoxy-3-methyl-8-(1-methyl-1H-pyrazol-4-yl)-1,3-dihydroimidazo[4,5-c]-quinolin-2-one] | 0.2 to 1
